Reference: US7256198B2, “Pyrimidoindolones and methods for using same” (Wyeth, priority 2004, dated 2007)

molecular target: T1, recombinant caspase 3 (Homo sapiens, UniProt P42574); experiment: Caspase 3 Inhibition Assay (Ac-DEVD-AFC fluorogenic substrate cleavage); format: biochemical; conditions: @ 1 μM compound; recombinant caspase 3, Ac-DEVD-AFC 25 μM, pH 7.2, 23° C.; read-out: percent inhibition at the highest compound concentration
T1 construct: His tag (C); made in house; host or cells: E. coli
T1 sequence (P42574 29-175 limits assumed): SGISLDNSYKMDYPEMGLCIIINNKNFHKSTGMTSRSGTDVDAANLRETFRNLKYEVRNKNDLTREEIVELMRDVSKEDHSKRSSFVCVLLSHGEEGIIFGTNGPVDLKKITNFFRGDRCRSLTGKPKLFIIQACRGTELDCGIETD
T1 sequence (P42574 176-277 limits assumed): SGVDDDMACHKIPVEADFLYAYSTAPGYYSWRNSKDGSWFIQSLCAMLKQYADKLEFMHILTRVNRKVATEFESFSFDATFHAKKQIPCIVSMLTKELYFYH
Method: Caspase 3 was expressed intracellularly in E. coli with a c-terminal His tag. Fermentation was performed at 25° C. in a B. Braun Biotech Biostat C 10 liter bioreactor vessel. The culture was collected in IL bottles and centrifuged in Komspin KA-7.1000 rotors at approximately 8000 RCF (Relative Centrifugal Force). The cell pellets were re-suspended in 20 mM Tris pH 8.0, 500 mM NaCl, and 5 mM imidazole. The cell suspension was disrupted by passing 5 times through a microfluidizer Model 110Y (Microfluidics Corp, Newton, Mass). After centrifugation (13 kg, 30 min at 4 C), the supernatant was applied to a column of Nickle-NTA agarose. The Caspase 3 was eluted with a gradient of 5 mM to 150 mM imidazole in the above buffer. Fractions containing Caspase 3 were pooled and concentrated with a Millipore Ultrafree filtration device. The concentrated Caspase 3 solution was loaded unto a TSK gel G3000sw column (Tosoh Bioseph LLC), equilibrated with a buffer of 20 mM PIPES pH 7.2, 100 mM NaCl, 1 mM EDTA & 5 mM Cysteine. Fractions containing Caspase 3 were pooled and concentrated. Sometimes CHAPS was added to 0.1% and sucrose to 10% into the protein sample.
Caspase 3 was assayed at 23° C. (room temp) in 96-well plates using the internally quenched tetrapeptide substrate N-acetyl-aspartyl-glutamyl-valyl-aspartate-7-amino-4-trifluoromethyl coumarin (Ac-DEVD-AFC purchased from Biomol). The assays are conducted at pH 7.2 in a buffered system containing 20 mM PIPES, 100 mM NaCl, 1 mM EDTA, 0.1% CHAPS, 10% sucrose and 5 mM L-cysteine. […] A steady state rate of substrate cleavage is obtained for analysis.
The progress curves generated were fitted by computer to equation 1 to generate an IC50 value. Equation 1: y=Bmax*(1−(x^n/(K^n+x^n))), where Bmax is rate in the absence of inhibitor.

| Structure (SMILES) | inhibition at 1 µM |
| --- | --- |
| COC[C@@H]1CCCN1C(=O)c1ccc2c(c1)C(=O)C1=NCC(C)(C)CN12 [Example 75, 8-{[(2S)-2-(Methoxymethyl)pyrrolidin-1-yl]carbonyl}-3,3-dimethyl-3,4-dihydropyrimido[1,2-a]indol-10(2H)-one] | 10% |

same assay, conditions: @ 50 μM compound; recombinant caspase 3, Ac-DEVD-AFC 25 μM, pH 7.2, 23° C.; read-out: percent inhibition at the highest compound concentration

| Structure (SMILES) | inhibition at 50 µM |
| --- | --- |
| Cc1ccc2c(c1)C(=O)C1=NCCCN12 [Example 10, 8-Methyl-3,4-dihydropyrimido[1,2-a]indol-10(2H)-one] | 10% |
| COc1ccc2c(c1)C(=O)C1=NCCCN12 [Example 11, 8-Methoxy-3,4-dihydropyrimido[1,2-a]indol-10(2H)-one] | 9% |
| CC1(C)CN=C2C(=O)c3cc(S(=O)(=O)N4CCC[C@H]4COc4cccnc4Br)ccc3N2C1 [Example 35, 8-[((2S)-2-{[(2-Bromopyridin-3-yl)oxy]methyl}pyrrolidin-1-yl)sulfonyl]-3,3-dimethyl-3,4-dihydropyrimido[1,2-a]indol-10(2H)-one] | 26% |
| CC1(C)CN=C2C(=O)c3cc(C(=O)Nc4ccccc4)ccc3N2C1 [Example 76, 3,3-Dimethyl-10-oxo-N-phenyl-2,3,4,10-tetrahydropyrimido[1,2-a]indole-8-carboxamide] | 36% |
| CC1(C)CN=C2C(=O)c3cc(C(=O)N4CCCC4)ccc3N2C1 [Example 78, 3,3-Dimethyl-8-(pyrrolidin-1-ylcarbonyl)-3,4-dihydropyrimido[1,2-a]indol-10(2H)-one] | 37% |
| CC1(C)CN=C2C(=O)c3cc(C(=O)N4CCc5ccccc54)ccc3N2C1 [Example 80, 8-(2,3-Dihydro-1H-indol-1-ylcarbonyl)-3,3-dimethyl-3,4-dihydropyrimido[1,2-a]indol-10(2H)-one] | 46% |

same assay, conditions: recombinant caspase 3 0.25 nM, Ac-DEVD-AFC 25 μM, pH 7.2, 23° C.

| Structure (SMILES) | IC50 |
| --- | --- |
| COC[C@@H]1CCCN1S(=O)(=O)c1ccc2c(c1)C(=O)C1=NCC3(CCCCCC3)CN12 [85/86, 8′-{[(2S)-2-(methoxymethyl)pyrrolidin-1-yl]sulfonyl}spiro[cycloheptane-1,3′-pyrimido[1,2-a]indol]-10′(2′H)-one] | 45 nM |
| COC[C@@H]1CCCN1S(=O)(=O)c1cc2c(cc1Cl)N1CCCN=C1C2=O [Example 5, 7-Chloro-8-{[(2S)-2-(methoxymethyl)pyrrolidin-1-yl-]sulfonyl}-3,4-dihydropyrimido[1,2-a]indol-10(2H)-one] | 189 nM |
| CC1(C)CN=C2C(=O)c3cc(Cl)ccc3N2C1 [Example 14, 8′-Chloro-3′,3′-dimethyl-3′,4′-dihydropyrimido[1,2-a]indol-10(2H)-one] | 874 nM |
| O=C1C2=NCCCN2c2cc(Cl)c([N+](=O)[O-])cc21 [Example 15, 7-Chloro-8-nitro-3,4-dihydropyrimido[1,2-a]indol-10(2H)-one] | 4590 nM |
| CC1(C)CN=C2C(=O)c3cc(C#N)ccc3N2C1 [Example 20, 3,3-Dimethyl-10-oxo-2,3,4,10-tetrahydropyrimido[1,2-a]indole-8-carbonitrile] | 99 nM |
| Cc1ccc(OC[C@@H]2CCCN2S(=O)(=O)c2ccc3c(c2)C(=O)C2=NCC(C)(C)CN23)cc1 [Example 24, 3,3-Dimethyl-8-({(2S)-2-[(4-methylphenoxy)methyl]pyrrolidin-1-yl}sulfonyl)-3,4-dihydropyrimido[1,2-a]indol-10(2H)-one] | 49 nM |
| Cc1ccc(OC[C@@H]2CCCN2S(=O)(=O)c2ccc3c(c2)C(=O)C2=NCC(C)(C)CN23)c(Cl)c1 [Example 26, 8-({(2S)-2-[(2-Chloro-4-methylphenoxy)methyl]pyrrolidin-1-yl}sulfonyl)-3,3-dimethyl-3,4-dihydropyrimido[1,2-a]indol-10(2H)-one] | 98 nM |
| CC(=O)c1ccc(OC[C@@H]2CCCN2S(=O)(=O)c2ccc3c(c2)C(=O)C2=NCC(C)(C)CN23)c(C)c1 [Example 27, 8-({(2S)-2-[(4-Acetyl-2-methylphenoxy)methyl]pyrrolidin-1-yl}sulfonyl)-3,3-dimethyl-3,4-dihydropyrimido[1,2-a]indol-10(2H)-one] | 55 nM |
| CC1(C)CN=C2C(=O)c3cc(S(=O)(=O)N4CCC[C@H]4COc4cccc(C(F)(F)F)c4)ccc3N2C1 [Example 31, 3,3-Dimethyl-8-[((2S)-2-{[3-(trifluoromethyl)phenoxy]methyl}pyrrolidin-1-yl)sulfonyl]-3,4-dihydropyrimido[1,2-a]indol-10(2H)-one] | 45 nM |
| CC1(C)CN=C2C(=O)c3cc(S(=O)(=O)N4c5ccccc5C[C@H]4COc4ccccc4)ccc3N2C1 [Example 34, 3,3-Dimethyl-8-{[(2S)-2-(phenoxymethyl)-2,3-dihydro-1H-indol-1-yl]sulfonyl}-3,4-dihydropyrimido[1,2-a]indol-10(2H)-one] | 1210 nM |
| CC1(C)CN=C2C(=O)c3cc(S(=O)(=O)N4CCC[C@H]4COc4cccc(Cl)n4)ccc3N2C1 [Example 40, 8-[((2S)-2-{[(6-Chloropyridin-2-yl)oxy]methyl}pyrrolidin-1-yl)sulfonyl]-3,3-dimethyl-3,4-dihydropyrimido[1,2-a]indol-10(2H)-one] | 5 nM |
| CC1(C)CN=C2C(=O)c3cc(S(=O)(=O)N4CCC[C@H]4COc4ccc(C(F)(F)F)cn4)ccc3N2C1 [Example 42, 3,3-Dimethyl-8-{[(2S)-2-({[5-(trifluoromethyl)pyridin-2-yl]oxy}methyl)pyrrolidin-1-yl]sulfonyl}-3,4-dihydropyrimido[1,2-a]indol-10(2H)-one] | 14 nM |
| CC1(C)CN=C2C(=O)c3cc(S(=O)(=O)N4CCC[C@H]4COc4cccnc4Cl)ccc3N2C1 [Example 43, 8-[((2S)-2-{[(2-Chloropyridin-3-yl)oxy]methyl}pyrrolidin-1-yl)sulfonyl]-3,3-dimethyl-3,4-dihydropyrimido[1,2-a]indol-10(2H)-one] | 7 nM |
| Cc1ccc(OC[C@@H]2CCCN2S(=O)(=O)c2ccc3c(c2)C(=O)C2=NCC(C)(C)CN23)cn1 [Example 44, 3,3-Dimethyl-8-[((2S)-2-{[(6-methylpyridin-3-yl)oxy]methyl}pyrrolidin-1-yl)sulfonyl]-3,4-dihydropyrimido[1,2-a]indol-10(2H)-one] | 19 nM |
| Cc1ccc(OC[C@@H]2CCCN2S(=O)(=O)c2ccc3c(c2)C(=O)C2=NCC(C)(C)CN23)c(I)n1 [Example 46, 8-[((2S)-2-{[(2-Iodo-6-methylpyridin-3-yl)oxy]methyl}pyrrolidin-1-yl)sulfonyl]-3,3-dimethyl-3,4-dihydropyrimido[1,2-a]indol-10(2H)-one] | 17 nM |
| CC1(C)CN=C2C(=O)c3cc(NS(=O)(=O)c4cccc(Br)c4)ccc3N2C1 [Example 50, 3-Bromo-N-(3,3-dimethyl-10-oxo-2,3,4,10-tetrahydropyrimido[1,2-a]indol-8-yl)benzenesulfonamide] | 23.4 nM |
| Cc1ccc(S(=O)(=O)Nc2ccc3c(c2)C(=O)C2=NCC(C)(C)CN23)cc1 [Example 51, N-(3,3-Dimethyl-10-oxo-2,3,4,10-tetrahydropyrimido[1,2-a]indol-8-yl)-4-methylbenzenesulfonamide] | 714 nM |
| CC1(C)CN=C2C(=O)c3cc(NS(=O)(=O)c4ccc(F)c(Cl)c4)ccc3N2C1 [Example 52, 3-Chloro-N-(3,3-dimethyl-10-oxo-2,3,4,10-tetrahydropyrimido[1,2-a]indol-8-yl)-4-fluorobenzenesulfonamide] | 285 nM |
| CC1(C)CN=C2C(=O)c3cc(NS(=O)(=O)c4ccc(Cl)c(Cl)c4)ccc3N2C1 [Example 53, 3,4-Dichloro-N-(3,3-dimethyl-10-oxo-2,3,4,10-tetrahydropyrimido[1,2-a]indol-8-yl)benzenesulfonamide] | 233 nM |
| CC1(C)CN=C2C(=O)c3cc(NS(=O)(=O)c4cc(C(F)(F)F)cc(C(F)(F)F)c4)ccc3N2C1 [Example 62, N-(3,3-Dimethyl-10-oxo-2,3,4,10-tetrahydropyrimido[1,2-a]indol-8-yl)-3,5-bis(trifluoromethyl)benzenesulfonamide] | 3140 nM |
| CC1(C)CN=C2C(=O)c3cc(C(=O)NC4CCCC4)ccc3N2C1 [Example 77, N-Cyclopentyl-3,3-dimethyl-10-oxo-2,3,4,10-tetrahydropyrimido[1,2-a]indole-8-carboxamide] | 35000 nM |
| CC1(C)CN=C2C(=O)c3cc(C(=O)N4CCCCC4)ccc3N2C1 [Example 79, 3,3-Dimethyl-8-(piperidin-1-ylcarbonyl)-3,4-dihydropyrimido[1,2-a]indol-10(2H)-one] | 21000 nM |
